According to PMC6278385, “Preclinical Pharmacokinetics of C118P, a Novel Prodrug of Microtubules Inhibitor and Its Metabolite C118 in Mice, Rats, and Dogs” (Molecules, 2018):

How the values were obtained:
[1] = Metabolic stability in liver microsomes; assay type: in vitro ADME, mice
Experimental: (§1) The in vitro metabolic stability of C118P and C118 were estimated in mice, rat, dog, monkey, and human liver microsomes (Research Institute for Liver Diseases Co. Ltd (Shanghai, China)). The incubation mixture contains C118P or C118, NADP (1.0 mM), G-6-P (10 mM), PDH (2 units/mL), MgCl2 (10 mM), and liver microsomes (mice, rats, dogs, monkeys, or humans, 1.0 mg protein/mL) in phosphate buffer. A total of 200 μL of the mixture was removed and quenched with 600 μL acetonitrile in an ice bath at 0, 15, 30, 60, 120, and 240 min after the addition of NADPH.
(§2) CLint, in vitro (the in vitro intrinsic clearance, Equation (1)) was calculated from the t1/2 of C118 disappearance, where Cprotein is the protein concentration during the incubation, and t1/2 was determined by the slope (k) of the log-linear regression analysis of the concentration versus time profiles; thus, t1/2 = ln2/k. […] The in vivo hepatic clearance (CLH, Equation (3)) was then calculated by using CLint and hepatic blood flow, Q ([…] mL·min^−1·kg^−1 in rats, dogs, monkey, and humans, respectively), in the well-stirred liver model disregarding all binding. The hepatic extraction ratio was calculated as CLH divided by Q. CLint, in vitro = (0.693/t1/2) × (1/Cprotein)(1) CLint = CLint, in vitro × (mg protein/g liver weight) × (gliver weight/kg body weight)(2) CLH = (Q × CLint)/(Q + CLint)(3)

[2] = Stability in plasma with EDTA as anticoagulant; assay type: in vitro ADME
[3] = Metabolic stability in liver microsomes; assay type: in vitro ADME, rat
Experimental: as §1, §2

[4] = Tandem two-compartment PK model of C118P and C118; assay type: in vivo, rat; conditions: for K12 / K21 / V1 / K10: rat; for K12 / K21 / V1: two-compartmental model parameter (Table S1); for K10: two-compartmental model, K10 supposed to be transformation rate of C118P into C118, simulated
Source text: Due to the rapid transformation of C118P into C118, there is no direct way to calculate the rate of transformation, thus a two-compartment model with metabolism involved was developed (Figure S3). The transformation rate from C118P into C118 was simulated by fitting the two-serial data of prodrug C118P and C118 in rats and dogs.
3. The pharmacokinetic profile of C118P and C118 was simulated by two compartmental models. To simplify the model, the excretion rate of C118P from central compartment was supposed to be zero. In this model, both C118P and C118 were described by two-compartmental model, with elimination rate of k(0,3) for C118. The connection between C118P and C118 is by the uniflow of transformation rate of k(3,1) since the metabolism of C118P to C118 is irreversible(Figure S3).
Figure S3. The pharmacokinetic model of C118P and C118 in rat after i.v C118P. ex1: the injection dose of C118P, s1: concentration of C118 in central compartment. s2: concentration of C118 in central compartment, q1 and q3 represent the central compartment of C118P and C118, respectively.
The q2 and q4 represent the peripheral compartment of C118P and C118, respectively. k(0,3) represents the elimination rate of C118 from central compartment. k(3,1) represents the transformation rate of C118P to C118. k(2,1) and k(4,3) represent the distribution rate of C118P and C118 from central compartment to peripheral compartment. k(1,2) and k(3,4) represent the return rate of C118P and C118 from peripheral compartment to central compartment.
For prodrug pharmacokinetic prediction, the transformation of prodrug to the active drug should be studied in different system to get the right data. With the help of modeling, the transformation ratio of C118P to C118 was calculated by a tandem two-compartment model (SAAMII, University of Washington). In simulation study, the initial parameters are very important for accurate prediction.
The initial compartmental model parameters of rat and dog were first evaluated by Winnonlin using two-compartmental model at low dose, with intravenous for C118P and extra vessel for C118 since […]
(1 picture or pasted object on this page, not shown here)
C118 was transformed from C118P. The initial parameters used in the simulation were listed in Table S1. Using these parameters, the simulation of PK profiles of rat and dog are well fit to the data from in vivo at higher dose (Figure S4). The simulation of C118P and C118, the transformation rate of C118P to C118 is calculated and transformation ratio (k) is about 18.3671/h and12.588 1/h for rats and dogs, respectively.
Figure S4. The simulation of PK profile at 20 mg/kg in rat(A) and 6 mg/kg(B) in dog based on initial parameters calculated by Winnonlin. (s1 represent the simulated data for C118 and s2 represent the simulated data for C118P, plasma 1 represent the experimental data for C118 and plasma 2 represent the experimental data for C118P.) […]

| CLint, in vitro ([1]; mice liver microsomes) | CLint ([1]; mice, scaled from CLint, in vitro) | half-life ([1]; mouse, mice liver microsomes, 1.0 mg protein/mL, C118 disappearance) | half-life ([3]; Sprague-Dawley, rat liver microsomes, 1.0 mg protein/mL, C118 disappearance) | CLint, in vitro ([3]; rat liver microsomes) | CLint ([3]; rat, scaled from CLint, in vitro) | Extrapolated CLH ([3]; rat, well-stirred liver model) | SMILES | stability in liver microsomes ([1]; mice liver microsomes (Figure S1)) | stability in plasma [2] | stability in liver microsomes ([3]; rat liver microsomes (Figure S1)) | K12 [4] | K21 [4] | V1 [4] | K10 [4] | transformation ratio (k) of C118P to C118 ([4]; rats, simulated with tandem two-compartment model) |
| --- | --- | --- | --- | --- | --- | --- | --- | --- | --- | --- | --- | --- | --- | --- | --- |
|  |  |  |  |  |  |  | COc1cc(OC)cc(-c2nc[nH]c2-c2ccc(OC)c(OP(=O)([O-])[O-])c2)c1.[Na+].[Na+] [C118P] | quite stable | stable | quite stable | 6.535 h⁻¹ | 18.281 h⁻¹ | 0.05441 L/kg | 18.369 h⁻¹ | ~18.367 h⁻¹ |
| 44.7 μL·min^−1·mg^−1 Protein | 115.3 mL/min/kg | 15.5 min | 10.3 min | 67.0 μL·min^−1·mg^−1 Protein | 115.3 mL/min/kg | 43.6 mL/min/kg | COc1cc(OC)cc(-c2nc[nH]c2-c2ccc(OC)c(O)c2)c1 [C118] |  | stable |  | 0.3516 h⁻¹ | 0.0121 h⁻¹ | 2.708 L/kg | 0.9897 h⁻¹ |  |
